Measurements as given in PubChem BioAssay AID1259407 (Chemical Carcinogenesis Research Information System (CCRIS), 2018).
The source made the active and inactive calls. No rule for the calls is given here.

Test system: CCRIS mutagenicity, Ames/micronucleus/aberration tests
Assay: CCRIS mutagenicity studies

Measured: mutagenic call

CCN(CC)N=O
inactive: Test System: AMES SALMONELLA TYPHIMURIUM, Strain/Indicator: TA97, Metabolic Activation: NONE, Method: PREINCUBATION inactive; negative | Test System: AMES SALMONELLA TYPHIMURIUM, Strain/Indicator: TA97, Metabolic Activation: RAT LIVER S-9, AROCLOR, Method: PREINCUBATION inactive; negative | Test System: AMES SALMONELLA TYPHIMURIUM, Strain/Indicator: TA98, Metabolic Activation: RAT, LIVER, S-9, AROCLOR 1254 (30%), Method: PREINCUBATION inactive; negative | Test System: AMES SALMONELLA TYPHIMURIUM, Strain/Indicator: TA98NR, Metabolic Activation: NONE, Method: PREINCUBATION inactive; negative | Test System: AMES SALMONELLA TYPHIMURIUM, Strain/Indicator: TA100, Metabolic Activation: MOUSE, KIDNEY, S-9, PHENETHYL ISOTHIOCYANATE, Method: PREINCUBATION inactive; negative | Test System: AMES SALMONELLA TYPHIMURIUM, Strain/Indicator: TA100, Metabolic Activation: MOUSE, LIVER, S-9, PHENETHYL ISOTHIOCYANATE, Method: PREINCUBATION inactive; negative | Test System: AMES SALMONELLA TYPHIMURIUM, Strain/Indicator: TA100, Metabolic Activation: MOUSE, LUNG, S-9, PHENETHYL ISOTHIOCYANATE, Method: PREINCUBATION inactive; negative | Test System: AMES SALMONELLA TYPHIMURIUM, Strain/Indicator: TA100, Metabolic Activation: MOUSE, LUNG, S-9, Method: PREINCUBATION inactive; negative | Test System: AMES SALMONELLA TYPHIMURIUM, Strain/Indicator: TA100, Metabolic Activation: NONE, Method: STANDARD PLATE inactive; negative | Test System: AMES SALMONELLA TYPHIMURIUM, Strain/Indicator: TA100, Metabolic Activation: RABBIT, LIVER, S-9, Method: STANDARD PLATE inactive; negative | Test System: AMES SALMONELLA TYPHIMURIUM, Strain/Indicator: TA100, Metabolic Activation: RABBIT, LUNG, S-9, Method: STANDARD PLATE inactive; negative | Test System: AMES SALMONELLA TYPHIMURIUM, Strain/Indicator: TA100, Metabolic Activation: RABBIT, NASAL, S-9, Method: STANDARD PLATE inactive; negative | Test System: AMES SALMONELLA TYPHIMURIUM, Strain/Indicator: TA100, Metabolic Activation: RAT, LIVER, S-9, AROCLOR 1254 (30%), Method: PREINCUBATION inactive; negative | Test System: AMES SALMONELLA TYPHIMURIUM, Strain/Indicator: TA100, Metabolic Activation: RAT, LUNG, S-9, Method: STANDARD PLATE inactive; negative | Test System: AMES SALMONELLA TYPHIMURIUM, Strain/Indicator: TA100, Metabolic Activation: RAT, NASAL, S-9, Method: STANDARD PLATE inactive; negative | Test System: AMES SALMONELLA TYPHIMURIUM, Strain/Indicator: TA100, Metabolic Activation: S-9, Method: PREINCUBATION inactive; negative | Test System: AMES SALMONELLA TYPHIMURIUM, Strain/Indicator: TA102, Metabolic Activation: NONE, Method: PREINCUBATION inactive; negative | Test System: AMES SALMONELLA TYPHIMURIUM, Strain/Indicator: TA102, Metabolic Activation: RAT LIVER S-9, AROCLOR, Method: PREINCUBATION inactive; negative | Test System: AMES SALMONELLA TYPHIMURIUM, Strain/Indicator: TA1535, Metabolic Activation: NONE, Method: PREINCUBATION inactive; negative | Test System: AMES SALMONELLA TYPHIMURIUM, Strain/Indicator: TA1535, Metabolic Activation: S-9, Method: PREINCUBATION inactive; negative | Test System: AMES SALMONELLA TYPHIMURIUM, Strain/Indicator: TA1535ER, Metabolic Activation: NONE, Method: STANDARD PLATE inactive; negative
active: End Point: IN VITRO MICRONUCLEUS, Test System: AHH-1 CELLS, Metabolic Activation: NONE active; positive | End Point: IN VITRO MICRONUCLEUS, Test System: MCL-5 CELLS, Metabolic Activation: NONE active; positive | Test System: AMES SALMONELLA TYPHIMURIUM, Strain/Indicator: TA98, Metabolic Activation: HAMSTER, LIVER, S-9, AROCLOR 1254 (30%), Method: PREINCUBATION active; positive | Test System: AMES SALMONELLA TYPHIMURIUM, Strain/Indicator: TA98, Metabolic Activation: NONE, Method: PREINCUBATION active; positive | Test System: AMES SALMONELLA TYPHIMURIUM, Strain/Indicator: TA98, Metabolic Activation: RAT LIVER S-9, AROCLOR, Method: PREINCUBATION active; positive | Test System: AMES SALMONELLA TYPHIMURIUM, Strain/Indicator: TA98, Metabolic Activation: RAT, LIVER, S-9, AROCLOR 1254, Method: STANDARD PLATE active; positive | Test System: AMES SALMONELLA TYPHIMURIUM, Strain/Indicator: TA98, Metabolic Activation: RAT, LIVER, S-9, KC500 OR PHENOBARBITAL, Method: LIQUID SUSPENSION active; positive | Test System: AMES SALMONELLA TYPHIMURIUM, Strain/Indicator: TA98, Metabolic Activation: RAT, LIVER, S-9, PHENOBARBITAL, Method: PREINCUBATION active; positive | Test System: AMES SALMONELLA TYPHIMURIUM, Strain/Indicator: TA98NR, Metabolic Activation: RAT LIVER S-9, AROCLOR, Method: PREINCUBATION active; positive | Test System: AMES SALMONELLA TYPHIMURIUM, Strain/Indicator: TA100, Metabolic Activation: HAMSTER, LIVER, S-9, AROCLOR 1254 (30%), Method: PREINCUBATION active; positive | Test System: AMES SALMONELLA TYPHIMURIUM, Strain/Indicator: TA100, Metabolic Activation: MOUSE, INTACT UROTHELIAL CELLS, Method: FLUCTUATION TEST active; positive | Test System: AMES SALMONELLA TYPHIMURIUM, Strain/Indicator: TA100, Metabolic Activation: MOUSE, KIDNEY, S-9, Method: PREINCUBATION active; positive | Test System: AMES SALMONELLA TYPHIMURIUM, Strain/Indicator: TA100, Metabolic Activation: MOUSE, LIVER, S-9, Method: PREINCUBATION active; positive | Test System: AMES SALMONELLA TYPHIMURIUM, Strain/Indicator: TA100, Metabolic Activation: RAT LIVER S-9, AROCLOR, Method: PREINCUBATION active; positive | Test System: AMES SALMONELLA TYPHIMURIUM, Strain/Indicator: TA100, Metabolic Activation: RAT, INTACT UROTHELIAL CELLS, Method: FLUCTUATION TEST active; positive | Test System: AMES SALMONELLA TYPHIMURIUM, Strain/Indicator: TA100, Metabolic Activation: RAT, LIVER, S-9, AROCLOR 1254, Method: PREINCUBATION active; positive | Test System: AMES SALMONELLA TYPHIMURIUM, Strain/Indicator: TA100, Metabolic Activation: RAT, LIVER, S-9, KC500 OR PHENOBARBITAL, Method: LIQUID SUSPENSION active; positive | Test System: AMES SALMONELLA TYPHIMURIUM, Strain/Indicator: TA100, Metabolic Activation: RAT, LIVER, S-9, PHENOBARBITAL, Method: PREINCUBATION active; positive | Test System: AMES SALMONELLA TYPHIMURIUM, Strain/Indicator: TA104, Metabolic Activation: RAT, LIVER, S-9, AROCLOR 1254, Method: PREINCUBATION active; positive | Test System: AMES SALMONELLA TYPHIMURIUM, Strain/Indicator: TA1530, Metabolic Activation: RAT, LIVER, S-9, PHENOBARBITAL, Method: PREINCUBATION active; positive | Test System: AMES SALMONELLA TYPHIMURIUM, Strain/Indicator: TA1530, Metabolic Activation: RAT, LIVER, S-9, Method: STANDARD PLATE active; positive | Test System: AMES SALMONELLA TYPHIMURIUM, Strain/Indicator: TA1535, Metabolic Activation: RAT, LIVER, HEPATOCYTES, Method: PREINCUBATION active; positive | Test System: AMES SALMONELLA TYPHIMURIUM, Strain/Indicator: TA1535, Metabolic Activation: RAT, LIVER, S-9, AROCLOR 1254, Method: PREINCUBATION active; positive | Test System: AMES SALMONELLA TYPHIMURIUM, Strain/Indicator: TA1535, Metabolic Activation: RAT, LIVER, S-9, AROCLOR, Method: PREINCUBATION active; positive | Test System: AMES SALMONELLA TYPHIMURIUM, Strain/Indicator: TA1535, Metabolic Activation: RAT, LIVER, S-9, SODIUM PHENOBARBITONE, Method: PREINCUBATION active; positive | Test System: AMES SALMONELLA TYPHIMURIUM, Strain/Indicator: TA1535, Metabolic Activation: RAT, LIVER, S-9, Method: PREINCUBATION active; positive | Test System: AMES SALMONELLA TYPHIMURIUM, Strain/Indicator: TA1975, Metabolic Activation: RAT, LIVER, S-9, AROCLOR 1254, Method: PREINCUBATION active; positive
